# Results reported in US4216314A, “N-Aryloxypropyl-N'-dioxopyrimidyl-α,ω-alkylenediamines” (Cassella Farbwerke Mainkur Aktiengesellschaft, priority 1977, dated 1980).
# Columns and labels:
# [1] = target: T1, β1 -receptors of the heart (Canis lupus familiaris, UniProt P79148); assay: inhibition of isoproterenol effect on dp/dtmax of left ventricle (β1-receptors of the heart) in anaesthetised dogs; assay type: in vivo, mongrel dogs; details: for ED50: dog, cumulative intravenous dose for 50% inhibition of effect of isoproterenol (0.5 gamma/kg i.v.) on dp/dtmax, chloralose/urethane/morphine anaesthesia, read-out: ED50 β1 mg/kg intravenously; for ratio of the doses, ED50 β2 / ED50 β1 (head is drawing 43): number significantly >1 indicates cardioselective action
# T1 construct: from tissue; host or cells: heart (left ventricle) of anaesthetised mongrel dogs, in vivo
# Method: (§1) Pharmacological tests for activity towards β1 -receptors and β2 -receptors were carried out on mongrel dogs of both sexes under chloralose/urethane/morphine anaesthesia. The pressure in the left ventricle was recorded by means of a catheter tip manometer (micro-tip pressure transducer, MILLAR Instruments, Houston, Texas). The pressure signal was continuously differentiated by means of an analog computer and recorded (BRUSH Instruments, Cleveland, Ohio). The flow of blood through an arteria femoralis was measured and recorded by means of an electromagnetic flow meter (Messrs. STATHAM, Model M4000). Injection catheters were fastened to a peripheral vein and into a branch of the a. femoralis.
# (§2) Isoproterenol was injected intravenously (0.5 gamma/kg) and intraarterially (0.05 gamma/kg). The effect of the isoproterenol on the dp/dtmax in the case of intravenous administration was considered to be an expression of the stimulation of the β1 -receptors of the heart. The change in the flow of blood through the arteria femoralis in the case of intraarterial injection of isoproterenol was considered to be an expression of the stimulation of the peripheral β2 -receptors (D-DUNLOP and R. G. SHANKS, "Selective Blockade of Adrenoceptive beta-Receptors in the Heart", Br. J. Pharmac. Chemother., 32, 201 to 218, 1968). The percentage inhibition of the effects of isoproterenol with respect to the cumulative doses of the test substance was determined. The cumulative doses of the test substance which leads to 50% inhibition of the isoproterenol effects (=ED50) was determined by means of a modified probit analysis. Substances which inhibit the isoproterenol effects on the dp/dtmax (β1) at a low dose and only decrease the change in the flow of blood through the a. femoralis at higher doses (β2) preferentially act on the β1 -receptors of the heart. The ratio of the doses. [formula] should be as high as possible.
# peripheral β2 -receptors = target: T2, peripheral β2 -receptors (Canis lupus familiaris, UniProt P54833); assay: inhibition of isoproterenol effect on blood flow through arteria femoralis (peripheral β2-receptors) in anaesthetised dogs; assay type: in vivo, mongrel dogs; details: dog; cumulative intravenous dose for 50% inhibition of effect of isoproterenol (0.05 gamma/kg intraarterially) on blood flow through a. femoralis; chloralose/urethane/morphine anaesthesia; read-out: ED50 β2 mg/kg intraveneously
# T2 construct: from tissue; host or cells: femoral arterial bed of anaesthetised mongrel dogs, in vivo
# Method: as §1, §2
# T1 sequence (P79148 whole entry): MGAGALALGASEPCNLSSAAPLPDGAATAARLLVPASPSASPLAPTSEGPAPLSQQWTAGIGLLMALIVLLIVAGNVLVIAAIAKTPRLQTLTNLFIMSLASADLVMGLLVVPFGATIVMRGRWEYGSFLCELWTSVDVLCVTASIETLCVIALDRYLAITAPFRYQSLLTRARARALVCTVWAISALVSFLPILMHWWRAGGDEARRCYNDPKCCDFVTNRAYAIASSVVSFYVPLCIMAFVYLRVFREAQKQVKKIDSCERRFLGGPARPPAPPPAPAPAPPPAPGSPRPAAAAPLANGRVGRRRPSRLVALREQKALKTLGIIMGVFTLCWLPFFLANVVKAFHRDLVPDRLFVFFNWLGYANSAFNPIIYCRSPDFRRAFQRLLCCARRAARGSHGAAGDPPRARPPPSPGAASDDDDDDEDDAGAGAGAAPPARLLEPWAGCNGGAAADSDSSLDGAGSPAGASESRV
# T2 sequence (P54833 whole entry): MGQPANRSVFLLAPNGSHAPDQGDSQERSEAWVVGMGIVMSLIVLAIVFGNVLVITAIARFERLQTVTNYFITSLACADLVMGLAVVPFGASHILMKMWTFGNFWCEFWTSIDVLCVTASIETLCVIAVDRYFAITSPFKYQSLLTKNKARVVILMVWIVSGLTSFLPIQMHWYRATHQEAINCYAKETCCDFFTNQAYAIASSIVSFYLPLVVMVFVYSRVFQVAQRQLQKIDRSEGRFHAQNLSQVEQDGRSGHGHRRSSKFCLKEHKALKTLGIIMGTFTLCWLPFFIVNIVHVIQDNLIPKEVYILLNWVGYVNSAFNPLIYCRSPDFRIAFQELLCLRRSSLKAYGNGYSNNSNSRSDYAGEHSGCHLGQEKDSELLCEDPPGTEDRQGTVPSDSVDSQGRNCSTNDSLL
SMILES,ED50 [1] [mg/kg],"ratio of the doses, ED50 β2 / ED50 β1 (head is drawing 43) [1]",ED50 (peripheral β2 -receptors) [mg/kg]
CCCCOc1ccc(OCC(O)CNCCNc2cc(=O)n(C)c(=O)n2C)cc1 (stereo not drawn) [Example 13],0.0096,"> 1,000",> 9.6
Cn1c(NCCNCC(O)COc2ccc(OCc3ccccc3)cc2)cc(=O)n(C)c1=O (stereo not drawn) [Example 19],0.0139,322,4.48
Cn1c(NCCNCC(O)COc2ccc(OCCO)cc2)cc(=O)n(C)c1=O (stereo not drawn) [Example 14],0.0291,303,8.83
COc1ccc(OCC(O)CNCCNc2cc(=O)n(C)c(=O)n2C)cc1 (stereo not drawn) [Example 11],0.0157,341,5.36
CCCOc1ccc(OCC(O)CNCCNc2cc(=O)n(C)c(=O)n2C)cc1 (stereo not drawn) [Example 12],0.0061,"> 1,000",> 7.3
